In assay [1] the target is Tyrosine-protein kinase JAK1 (Homo sapiens, UniProt P23458). As to the kind of experiment: Jak1 Kinase Activity Test In Vitro. As for the experimental part:
JAK1(h) was incubated with 20 mM Tris/HCl pH 7.5, 0.2 mM EDTA, 500 μM MGEEPLYWSFPAKKK (SEQ ID NO: 1), 10 mM magnesium acetate and [γ-33P]-ATP (activity and concentration were determined as required). The reaction was started by adding the Mg/ATP mixture, and after incubation at room temperature for 40 min, the reaction was terminated by adding 0.5% phosphoric acid. Then 10 μL of the reaction product was spotted on a P30 filter pad which was washed three times with 0.425% phosphoric acid and once with methanol within 4 min, dried, and subjected to scintillation counting.

For assay [2], the target named is T1, Tyrosine-protein kinase JAK3 (Homo sapiens, UniProt P52333).
T1 sequence (P52333 whole entry): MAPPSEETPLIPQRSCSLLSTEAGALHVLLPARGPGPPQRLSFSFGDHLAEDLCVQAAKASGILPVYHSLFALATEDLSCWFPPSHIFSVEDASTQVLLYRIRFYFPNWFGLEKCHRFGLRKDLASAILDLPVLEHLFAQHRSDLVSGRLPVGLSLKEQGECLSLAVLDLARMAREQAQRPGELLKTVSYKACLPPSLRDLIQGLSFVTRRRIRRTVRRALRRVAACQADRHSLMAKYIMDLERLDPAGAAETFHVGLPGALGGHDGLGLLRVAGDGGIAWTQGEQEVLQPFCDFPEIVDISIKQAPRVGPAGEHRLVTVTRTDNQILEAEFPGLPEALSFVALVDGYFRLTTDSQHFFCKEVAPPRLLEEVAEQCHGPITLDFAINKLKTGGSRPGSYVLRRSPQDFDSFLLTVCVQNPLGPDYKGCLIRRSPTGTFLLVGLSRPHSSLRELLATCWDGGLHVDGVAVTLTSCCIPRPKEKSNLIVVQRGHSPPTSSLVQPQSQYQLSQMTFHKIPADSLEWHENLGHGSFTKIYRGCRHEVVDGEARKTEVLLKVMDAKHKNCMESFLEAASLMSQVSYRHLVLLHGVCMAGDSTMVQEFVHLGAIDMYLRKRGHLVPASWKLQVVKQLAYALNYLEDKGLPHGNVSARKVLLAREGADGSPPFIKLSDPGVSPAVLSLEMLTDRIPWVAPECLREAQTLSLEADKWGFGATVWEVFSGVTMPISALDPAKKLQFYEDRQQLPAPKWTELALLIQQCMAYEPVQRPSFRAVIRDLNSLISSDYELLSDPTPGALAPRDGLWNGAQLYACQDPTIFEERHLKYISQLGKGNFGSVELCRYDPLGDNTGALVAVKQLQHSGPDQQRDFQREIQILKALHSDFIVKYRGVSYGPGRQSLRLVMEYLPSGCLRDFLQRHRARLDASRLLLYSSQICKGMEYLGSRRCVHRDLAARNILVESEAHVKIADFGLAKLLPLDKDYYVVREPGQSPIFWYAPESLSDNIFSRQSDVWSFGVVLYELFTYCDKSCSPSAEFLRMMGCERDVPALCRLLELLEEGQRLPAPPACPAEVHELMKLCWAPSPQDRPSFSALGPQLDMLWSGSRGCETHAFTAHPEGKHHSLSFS
Put plainly: Jak3 Kinase Activity Test In Vitro. As for the experimental part:
JAK3(h) was incubated with 8 mM MOPS pH 7.0, 0.2 mM EDTA, 500 μM GGEEEEYFELVKKKK (SEQ ID NO: 3), 10 mM magnesium acetate, and [γ-33P]-ATP (activity and concentration were determined as required). The reaction was started by adding the Mg/ATP mixture, and after incubation at room temperature for 40 min, the reaction was terminated by adding 0.5% phosphoric acid. Then 10 μL of the reaction product was spotted on a P30 filter pad which was washed three times with 0.425% phosphoric acid and once with methanol within 4 min, dried, and subjected to scintillation counting.

The target of assay [3] is Non-receptor tyrosine-protein kinase TYK2 (Homo sapiens, UniProt P29597). As to the kind of experiment: TYK2 Kinase Activity Test In Vitro. As for the experimental part: TYK2(h) was incubated with 8 mM MOPS pH 7.0, 0.2 mM EDTA, 250 μM GGMEDIYFEFMGGKKK (SEQ ID NO: 4), 10 mM magnesium acetate, and [γ-33P]-ATP (activity and concentration were determined as required). The reaction was started by adding the Mg/ATP mixture, and after incubation at room temperature for 40 min, the reaction was terminated by adding 0.5% phosphoric acid. Then 10 μL of the reaction product was spotted on a P30 filter pad which was washed three times with 0.425% phosphoric acid and once with methanol within 4 min, dried, and subjected to scintillation counting.

The target in assay [4] is Tyrosine-protein kinase JAK2 (Homo sapiens, UniProt O60674). As to the kind of experiment: Jak2 Kinase Activity Test In Vitro. The method, then:
JAK2(h) was incubated with 8 mM MOPS pH 7.0, 0.2 mM EDTA, 100 μM […] (SEQ ID NO: 2), 10 mM magnesium acetate, and [γ-33P]-ATP (activity and concentration were determined as required). The reaction was started by adding the Mg/ATP mixture, and after incubation at room temperature for 40 min, the reaction was terminated by adding 0.5% phosphoric acid. Then 10 μL of the reaction product was spotted on a P30 filter pad which was washed three times with 0.425% phosphoric acid and once with methanol within 4 min, dried, and subjected to scintillation counting.

Sequence of Non-receptor tyrosine-protein kinase TYK2 (P29597 whole entry): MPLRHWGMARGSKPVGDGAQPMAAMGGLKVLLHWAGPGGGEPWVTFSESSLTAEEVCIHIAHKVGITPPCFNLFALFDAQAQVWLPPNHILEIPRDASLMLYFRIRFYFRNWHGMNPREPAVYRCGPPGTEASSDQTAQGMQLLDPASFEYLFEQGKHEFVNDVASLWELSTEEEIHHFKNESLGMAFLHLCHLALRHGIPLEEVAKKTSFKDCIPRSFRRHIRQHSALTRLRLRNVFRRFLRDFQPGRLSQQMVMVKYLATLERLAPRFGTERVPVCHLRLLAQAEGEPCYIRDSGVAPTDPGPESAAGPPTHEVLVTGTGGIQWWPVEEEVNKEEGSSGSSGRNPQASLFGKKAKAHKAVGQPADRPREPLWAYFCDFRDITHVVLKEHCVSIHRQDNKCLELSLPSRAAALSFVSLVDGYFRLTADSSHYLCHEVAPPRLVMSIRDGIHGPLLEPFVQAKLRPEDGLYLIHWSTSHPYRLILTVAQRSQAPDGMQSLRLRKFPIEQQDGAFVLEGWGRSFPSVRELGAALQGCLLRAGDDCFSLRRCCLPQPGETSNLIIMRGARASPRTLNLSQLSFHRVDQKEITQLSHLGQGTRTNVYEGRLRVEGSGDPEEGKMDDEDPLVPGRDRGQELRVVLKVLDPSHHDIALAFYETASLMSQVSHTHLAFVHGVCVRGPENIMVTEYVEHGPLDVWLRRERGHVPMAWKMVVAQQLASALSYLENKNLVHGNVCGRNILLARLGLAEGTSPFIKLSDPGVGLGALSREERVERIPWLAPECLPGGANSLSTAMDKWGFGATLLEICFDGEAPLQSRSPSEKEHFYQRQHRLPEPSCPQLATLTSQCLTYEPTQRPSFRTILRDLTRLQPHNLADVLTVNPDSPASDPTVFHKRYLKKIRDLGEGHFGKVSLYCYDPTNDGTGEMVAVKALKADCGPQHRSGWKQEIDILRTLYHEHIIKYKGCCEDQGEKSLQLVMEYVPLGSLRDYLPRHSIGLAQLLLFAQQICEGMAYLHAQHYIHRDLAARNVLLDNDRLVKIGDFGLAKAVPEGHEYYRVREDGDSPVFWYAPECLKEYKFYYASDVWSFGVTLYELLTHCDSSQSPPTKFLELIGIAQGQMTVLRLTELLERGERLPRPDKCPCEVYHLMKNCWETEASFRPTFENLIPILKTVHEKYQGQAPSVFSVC
Sequence of Tyrosine-protein kinase JAK1 (P23458 whole entry): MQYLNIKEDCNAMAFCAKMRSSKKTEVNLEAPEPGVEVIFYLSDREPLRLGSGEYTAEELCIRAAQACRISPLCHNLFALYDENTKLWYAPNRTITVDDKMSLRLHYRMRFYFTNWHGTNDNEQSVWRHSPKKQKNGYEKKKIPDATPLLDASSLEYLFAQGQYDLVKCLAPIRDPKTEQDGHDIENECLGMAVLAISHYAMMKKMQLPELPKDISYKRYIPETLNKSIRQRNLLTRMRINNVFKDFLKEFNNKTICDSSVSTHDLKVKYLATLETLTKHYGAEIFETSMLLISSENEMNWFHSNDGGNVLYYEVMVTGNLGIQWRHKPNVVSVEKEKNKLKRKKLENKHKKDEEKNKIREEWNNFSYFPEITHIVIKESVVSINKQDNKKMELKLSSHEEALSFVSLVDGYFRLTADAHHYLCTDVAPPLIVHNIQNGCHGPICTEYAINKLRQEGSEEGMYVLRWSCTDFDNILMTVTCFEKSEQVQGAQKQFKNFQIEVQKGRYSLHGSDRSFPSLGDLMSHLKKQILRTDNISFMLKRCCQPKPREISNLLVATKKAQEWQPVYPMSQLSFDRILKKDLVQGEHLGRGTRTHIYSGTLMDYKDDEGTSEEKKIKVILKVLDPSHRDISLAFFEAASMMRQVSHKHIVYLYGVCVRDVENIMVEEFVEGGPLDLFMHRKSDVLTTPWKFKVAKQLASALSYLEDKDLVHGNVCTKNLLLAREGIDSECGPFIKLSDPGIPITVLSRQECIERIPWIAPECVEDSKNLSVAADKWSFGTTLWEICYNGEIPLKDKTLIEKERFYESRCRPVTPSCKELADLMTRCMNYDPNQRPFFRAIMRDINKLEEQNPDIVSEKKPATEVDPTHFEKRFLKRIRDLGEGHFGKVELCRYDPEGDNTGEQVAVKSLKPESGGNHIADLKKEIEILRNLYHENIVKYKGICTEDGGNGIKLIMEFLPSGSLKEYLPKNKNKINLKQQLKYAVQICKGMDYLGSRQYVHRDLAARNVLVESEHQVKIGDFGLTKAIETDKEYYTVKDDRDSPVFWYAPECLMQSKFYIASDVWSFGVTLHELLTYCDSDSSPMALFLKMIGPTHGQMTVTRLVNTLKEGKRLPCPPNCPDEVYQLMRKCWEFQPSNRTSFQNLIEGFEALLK
Sequence of Tyrosine-protein kinase JAK2 (O60674 whole entry): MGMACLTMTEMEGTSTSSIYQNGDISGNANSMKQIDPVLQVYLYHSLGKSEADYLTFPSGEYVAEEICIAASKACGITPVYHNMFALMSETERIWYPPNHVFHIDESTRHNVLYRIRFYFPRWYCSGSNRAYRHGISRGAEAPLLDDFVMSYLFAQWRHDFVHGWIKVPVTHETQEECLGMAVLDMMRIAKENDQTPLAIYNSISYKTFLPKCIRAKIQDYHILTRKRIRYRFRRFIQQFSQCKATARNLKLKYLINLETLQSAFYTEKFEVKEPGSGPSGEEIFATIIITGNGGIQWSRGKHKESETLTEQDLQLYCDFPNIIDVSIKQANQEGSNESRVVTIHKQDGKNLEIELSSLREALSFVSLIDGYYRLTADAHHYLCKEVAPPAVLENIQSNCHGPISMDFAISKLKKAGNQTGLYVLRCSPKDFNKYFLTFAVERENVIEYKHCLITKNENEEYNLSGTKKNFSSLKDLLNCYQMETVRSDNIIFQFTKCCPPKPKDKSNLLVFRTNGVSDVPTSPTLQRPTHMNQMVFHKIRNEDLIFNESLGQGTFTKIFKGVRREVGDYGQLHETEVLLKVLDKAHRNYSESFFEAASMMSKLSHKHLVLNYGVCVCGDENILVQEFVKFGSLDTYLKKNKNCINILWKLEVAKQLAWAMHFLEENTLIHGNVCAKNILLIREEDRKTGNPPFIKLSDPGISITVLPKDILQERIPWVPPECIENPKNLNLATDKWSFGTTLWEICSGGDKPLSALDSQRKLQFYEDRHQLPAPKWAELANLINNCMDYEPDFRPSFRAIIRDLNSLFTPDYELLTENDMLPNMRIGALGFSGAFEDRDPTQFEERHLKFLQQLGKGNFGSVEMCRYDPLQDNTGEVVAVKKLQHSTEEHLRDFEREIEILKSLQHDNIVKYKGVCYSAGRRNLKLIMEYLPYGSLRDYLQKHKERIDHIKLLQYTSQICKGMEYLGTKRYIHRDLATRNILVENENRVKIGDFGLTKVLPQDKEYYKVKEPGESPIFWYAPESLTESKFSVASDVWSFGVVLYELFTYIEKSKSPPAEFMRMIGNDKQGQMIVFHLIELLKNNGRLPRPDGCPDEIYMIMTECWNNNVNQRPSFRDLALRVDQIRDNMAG

On to `N#CC[C@]1(n2cc(-c3nc(-c4cc(N)[nH]n4)cn4nccc34)cn2)CC2(C[C@@H](C#N)C2)C1` (some centres undefined) [US20250011332, Compound 20], for which the IC50 in assay [1] worked out at 14 nM; in assay [2] it was 480 nM; in assay [3], 1 nM.
Take `Cn1ccc(-c2cn3nccc3c(-c3cnn(C4(CC#N)CC5(CCN(C#N)C5)C4)c3)n2)n1` (centres undefined) [US20250011332, Compound 10]: the IC50 in assay [1] was 281 nM; in assay [4], 33 nM; in assay [2], at least 10000 nM; in assay [3], 30 nM.
Regarding `Cn1ccc(-c2cn3nccc3c(-c3cnn([C@]4(CC#N)CC5(CC[C@@H](C#N)CC5)C4)c3)n2)n1` (some centres undefined) [US20250011332, Compound 13], the half-inhibitory concentration (IC50) in assay [1] was 233 nM; in assay [4], 103 nM; in assay [2], 1080 nM; in assay [3] it was 10 nM.
For `Cn1ccc(-c2cn3nccc3c(-c3cnn([C@]4(CC#N)CC5(CC[C@@H](C#N)CC5)C4)c3)n2)n1` (some centres undefined) [US20250011332, Compound 12], the IC50 was 122 nM in assay [1], 138 nM in assay [4], 7740 nM in assay [2] and 6 nM in assay [3].
With `Cn1cc(-c2cc(-c3cnn([C@]4(CC#N)CC5(C[C@H](C#N)C5)C4)c3)c3ccnn3c2)cn1` (some centres undefined) [US20250011332, Compound 17], the IC50 in assay [1] was 229 nM; in assay [4] it was 28 nM; in assay [2] it was over 1000 nM.
Turning to `Cn1ncc(-c2cn3nccc3c(-c3cnn([C@]4(CC#N)CC5(C[C@H](C#N)C5)C4)c3)n2)c1N` (some centres undefined) [US20250011332, Compound 18], the IC50 is 12 nM in assay [1], 3 nM in assay [4] and 93 nM in assay [2].
Compound `Cn1cc(-c2cn3nccc3c(-c3cnn([C@]4(CC#N)CC5(C[C@@H](C#N)C5)C4)c3)n2)cn1` (some centres undefined) [US20250011332, Compound 4] returned an IC50 in assay [3] of 20 nM.
For `Cn1cc(-c2cn3nccc3c(-c3cnn([C@]4(CC#N)CC5(C[C@@H](C#N)C5)C4)c3)n2)cn1` (some centres undefined) [US20250011332, Compound 2], the IC50 in assay [1] came to 123 nM; in assay [2], 480 nM; in assay [3], 2 nM.
Turning to `Cn1ncc(-c2cn3nccc3c(-c3cnn([C@]4(CC#N)CC5(C[C@H](C#N)C5)C4)c3)n2)c1N` (some centres undefined) [US20250011332, Compound 19], the IC50 came out at 42 nM in assay [1], 6 nM in assay [4], 670 nM in assay [2] and 2 nM in assay [3].

For the origin of these results see BindingDB's records for patent US20250011332 (Soter Biopharma, 2025).
